This assay concerns the target Keap1 (Homo sapiens (Human), UniProt Q14145). As to the kind of experiment: HEK293 ARE luciferase assay. Format: cell-based. The note with it: HEK-293 ARE firefly luciferase transiently transfected cells; 18 h incubation; mean of 1 to 20 individual measurements. A digest of the protocol: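 Transiently transfected HEK-293 ARE firefly luciferase cells (10,000/well, DMEM with 10% FCS) exposed to compound, 10-point curve from 100 μM top, 0.3% DMSO, 18 h at 37 °C. SteadyGlo luminescence; activity normalised to 30 μM tBHQ (stimulator) and DMSO (neutral), activity threshold 50; means of 1-20 measurements.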

Chain of Keap1 (Q14145 whole entry): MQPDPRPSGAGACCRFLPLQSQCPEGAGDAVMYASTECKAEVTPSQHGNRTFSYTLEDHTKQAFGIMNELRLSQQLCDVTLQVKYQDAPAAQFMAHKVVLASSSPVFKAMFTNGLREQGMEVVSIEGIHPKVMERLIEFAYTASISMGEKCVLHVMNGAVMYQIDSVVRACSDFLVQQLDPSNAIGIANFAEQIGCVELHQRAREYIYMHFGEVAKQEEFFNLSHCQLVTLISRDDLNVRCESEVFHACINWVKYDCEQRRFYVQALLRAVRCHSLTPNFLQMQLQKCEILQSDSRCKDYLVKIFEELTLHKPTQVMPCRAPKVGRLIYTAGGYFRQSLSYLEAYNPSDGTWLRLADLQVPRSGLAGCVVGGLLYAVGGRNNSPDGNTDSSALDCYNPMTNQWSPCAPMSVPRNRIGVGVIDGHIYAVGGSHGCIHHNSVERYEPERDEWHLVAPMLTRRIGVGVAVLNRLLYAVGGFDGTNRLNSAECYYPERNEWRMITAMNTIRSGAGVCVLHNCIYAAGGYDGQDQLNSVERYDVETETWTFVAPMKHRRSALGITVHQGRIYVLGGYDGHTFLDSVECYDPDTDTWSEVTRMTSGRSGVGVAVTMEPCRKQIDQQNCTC

The molecule `COC1(c2ncc(F)cc2-c2cncc(C(C)(C)C#N)c2)C=C(C#N)C(=O)C(C)(C)C1` (single isomer, unassigned) [Compound 222, 3-[5′-(2-cyanopropan-2-yl)-5-fluoro[3,3′-bipyridin]-2-yl]-3-methoxy-5,5-dimethyl-6-oxocyclohex-1-ene-1-carbonitrile] registered a 50% effective concentration (EC50) of 6 nM.

On to `COC1(c2cccc(N3CCOCC3)n2)C=C(C#N)C(=O)C(C)(C)C1` (stereo not drawn) [Compound 110, 3-methoxy-5,5-dimethyl-3-[6-(morpholin-4-yl)pyridin-2-yl]-6-oxocyclohex-1-ene-1-carbonitrile], for which it took 109 nM to reach a half-maximal effect (EC50).

`COC1(c2ncc(F)cc2-c2ccc3ncnn3c2)C=C(C#N)C(=O)C(C)(C)C1` (single isomer, unassigned) [Compound 212, 3-[5-fluoro-3-([1,2,4]triazolo[1,5-a]pyridin-6-yl)pyridin-2-yl]-3-methoxy-5,5-dimethyl-6-oxocyclohex-1-ene-1-carbonitrile] returned a 50% effective concentration (EC50) of 7 nM. The value for `COC1(c2nc(C)c(Br)s2)C=C(C#N)C(=O)C(C)(C)C1` (stereo not drawn) [Compound 154, 3-(5-bromo-4-methyl-1,3-thiazol-2-yl)-3-methoxy-5,5-dimethyl-6-oxocyclohex-1-ene-1-carbonitrile] was 53 nM; that for `COC1(c2cccc(-c3ccccc3F)n2)C=C(C#N)C(=O)C(C)(C)C1` (stereo not drawn) [Compound 118, 3-[6-(2-fluorophenyl)pyridin-2-yl)-3-methoxy-5,5-dimethyl-6-oxocyclohex-1-ene-1-carbonitrile] was 355 nM; that for `COC1(c2ncc(F)cc2-c2cnn(C)c2C)C=C(C#N)C(=O)C(C)(C)C1` (stereo not drawn) [Compound 164, 3-[3-(1,5-dimethyl-1H-pyrazol-4-yl)-5-fluoropyridin-2-yl]-3-methoxy-5,5-dimethyl-6-oxocyclohex-1-ene-1-carbonitrile] was 28 nM. `COC1(c2ncc(F)cc2-c2cnn(C3CC3)c2)C=C(C#N)C(=O)C(C)(C)C1` (stereo not drawn) [Compound 166, 3-[3-(1-cyclopropyl-1H-pyrazol-4-yl)-5-fluoropyridin-2-yl]-3-methoxy-5,5-dimethyl-6-oxocyclohex-1-ene-1-carbonitrile]: the EC50 was 14 nM. The result for `COC1(c2ncc(F)cc2C(F)F)C=C(C#N)C(=O)C(C)(C)C1` (stereo not drawn) [Compound 152, 3-[3-(difluoromethyl)-5-fluoropyridin-2-yl]-3-methoxy-5,5-dimethyl-6-oxocyclohex-1-ene-1-carbonitrile] reads 47 nM; that for `COC1(c2ncc(Cl)cc2C(F)(F)F)C=C(C#N)C(=O)C(C)(C)C1` (single isomer, unassigned) [Compound 208, 3-[5-chloro-3-(trifluoromethyl)pyridin-2-yl]-3-methoxy-5,5-dimethyl-6-oxocyclohex-1-ene-1-carbonitrile], 231 nM.

Molecule `COC1(c2nccs2)C=C(C#N)C(=O)C(C)(C)C1` (stereo not drawn) [Compound 144, 3-methoxy-5,5-dimethyl-6-oxo-3-(1,3-thiazol-2-yl)cyclohex-1-ene-1-carbonitrile] gave an EC50 of 389 nM. The result for `COC1(c2ncc(F)cc2-c2cncc(S(C)(=O)=O)c2)C=C(C#N)C(=O)C(C)(C)C1` (single isomer, unassigned) [Compound 235, 3-[5-fluoro-5′-(methylsulfonyl)[3,3′-bipyridin]-2-yl)-3-methoxy-5,5-dimethyl-6-oxocyclohex-1-ene-1-carbonitrile] reads 79 nM; that for `COC1(c2ncc(F)cc2-c2cnc(C)s2)C=C(C#N)C(=O)C(C)(C)C1` (single isomer, unassigned) [Compound 73, 3-[5-fluoro-3-(2-methyl-1,3-thiazol-5-yl)pyridin-2-yl]-3-methoxy-5,5-dimethyl-6-oxocyclohex-1-ene-1-carbonitrile], 7 nM.

Regarding `COC1(c2ncc(F)cc2-c2ccnc(C(F)(F)F)c2)C=C(C#N)C(=O)C(C)(C)C1` (single isomer, unassigned) [Compound 236, 3-[5-fluoro-2′-(trifluoromethyl)[3,4′-bipyridin]-2-yl]-3-methoxy-5,5-dimethyl-6-oxocyclohex-1-ene-1-carbonitrile], the midpoint of the response, the EC50, lay at 17 nM. The value for `COC1(c2cccnc2Cl)C=C(C#N)C(=O)C(C)(C)C1` (stereo not drawn) [Compound 18, 3-(2-chloro-3-pyridyl)-3-methoxy-5,5-dimethyl-6-oxo-cyclohexene-1-carbonitrile] was 265 nM; that for `COC1(c2cc(C(F)(F)F)ccn2)C=C(C#N)C(=O)C(C)(C)C1` (stereo not drawn) [Compound 1, 3-methoxy-5,5-dimethyl-6-oxo-3-[4-(trifluoromethyl)-2-pyridyl]cyclohexene-1-carbonitrile] was 408 nM.

In general, EC50 refers to the concentration giving half of the maximal effect. A higher EC50 goes with lower potency in that assay.

(Values after patent publication US11479539B2, “Small molecule modulators of the BTB domain of Keap1” (MedImmune Limited, priority 2017, dated 2022).)
